Laboratory results as given in paper PMC9085577, “Discovery of a Potent and Orally Active Dual GPBAR1/CysLT1R Modulator for the Treatment of Metabolic Fatty Liver Disease” (Frontiers in Pharmacology, 2022).

System: liver transcriptome
Assay: AmpliSeq liver transcriptome of HFD-F mice
Assay type: in vivo
Conditions: liver
From the text: C57BL/6J male mice were fed a high fat diet (HFD) containing 59 KJ% fat plus 1% cholesterol, w/o sugar (ssniff ® EF R/M acc. D12330 mod. 22,7 ME/kg) and fructose (HFD-F) in drinking water (42 g/L), or normal chow diet for 61 days. Food intake was estimated as the difference of weight between the offered and the remnant amount of food at 3-days intervals. The food was provided as pressed pellets and the residual spillage was not considered. After 7 days, HFD-F mice were randomized to receive HFD-F alone or in combination with compound 2 (30 mg/kg/day) by gavage until the end of the experiment. Doses of each agent were chosen according to previously published data. Mice were housed under controlled temperature (22°C) and photoperiods (12:12-h light/dark cycle), allowed unrestricted access to standard mouse chow and tap water. The experimental protocol was approved by the Animal Care and Use Committee of the University of Perugia and by the Italian Minister of Health and Istituto Superiore di Sanità (Italy) and was in agreement with the European guidelines for use of experimental animals (permission n. 583/2017-PR). The general health of the animals was monitored daily by the Veterinarian in the animal facility. At the day of sacrifice, fed mice were deeply anesthetized with a mixture of tiletamine hypochloride and zolazepam hypochloride/xylazine at a dose of 50/5 mg/kg and sacrificed before 12 a.m.
High-quality RNA was extracted from mice livers, using the Direct-zol™ RNA MiniPrep w/Zymo-Spin™ IIC Columns (Zymo Research, Irvine, CA) according to the manufacturer’s instructions. RNA quality and quantity were assessed with the Qubit® RNA HS Assay Kit and a Qubit 3.0 fluorometer (Invitrogen, Carlsbad, CA) followed by agarose gel electrophoresis. Libraries were generated using the Ion AmpliSeq™ Transcriptome Mouse Gene Expression Core Panel and Chef-Ready Kit (Comprehensive evaluation of AmpliSeq transcriptome, a whole transcriptome RNA sequencing methodology) (Thermo Fisher Scientific, Waltham, MA). Briefly, 10 ng of RNA was reverse transcribed with SuperScript™ Vilo™ cDNA Synthesis Kit (Thermo Fisher Scientific, Waltham, MA) before library preparation on the Ion Chef™ instrument (Thermo Fisher Scientific, Waltham, MA). The resulting cDNA was amplified to prepare barcoded libraries using the Ion Code™ PCR Plate, and the Ion AmpliSeq™ Transcriptome Mouse Gene Expression Core Panel (Thermo Fisher Scientific, Waltham, MA), Chef-Ready Kit, according to the manufacturer’s instructions. Barcoded libraries were combined to a final concentration of 100 p.m., and used to prepare Template-Positive Ion Sphere™ (Thermo Fisher Scientific, Waltham, MA) Particles to load on Ion 540™ Chips, using the Ion 540™ Kit-Chef (Thermo Fisher Scientific, Waltham, MA). Sequencing was performed on an Ion S5™ Sequencer with Torrent Suite™ Software v6 (Thermo Fisher Scientific, Waltham, MA). The analyses were performed with a range of fold <−2 and >+2 and a p value <0.05, using Transcriptome Analysis Console Software (version 4.0.1), certified for AmpliSeq analysis (Thermo-Fisher). The transcriptomic data have been deposited as dataset on Mendeley data repository (reference number linking to the repository: Fiorucci, Stefano; Biagioli, Michele; Marchianò, Silvia; Di Giorgio, Cristina (2021), “Discovery of potent dual GPBAR1/CysLT1R modulator for the treatment of metabolic fatty liver disease,” Mendeley Data, V1, doi: 10.17632/6dnrk9fc72.1).

O=C(O)c1cccc(-c2ccc(OCc3ccc4ccccc4n3)cc2)c1 [Compound 2, 4'-(quinolin-2-ylmethoxy)-[1,1′-biphenyl]-3-carboxylic acid]
Uhrf1 transcript Avg (log2) (HFD-F + compound 2): 0.79 log2 | Upp2 transcript Avg (log2) (HFD-F + compound 2): 9.06 log2 | Usp2 transcript Avg (log2) (HFD-F + compound 2): 5.61 log2 | Wrn transcript Avg (log2) (HFD-F + compound 2): 3.27 log2 | Zfp101 transcript Avg (log2) (HFD-F + compound 2): 1.28 log2 | Zfp445 transcript Avg (log2) (HFD-F + compound 2): 6.23 log2 | 1810011O10Rik transcript Fold Change (HFD-F + compound 2 vs HFD-F): -2.01 | 2310001K24Rik transcript Fold Change (HFD-F + compound 2 vs HFD-F): 2.31 | 2310039H08Rik transcript Fold Change (HFD-F + compound 2 vs HFD-F): -2.25 | 4833423E24Rik transcript Fold Change (HFD-F + compound 2 vs HFD-F): 2.15 | 6430573F11Rik transcript Fold Change (HFD-F + compound 2 vs HFD-F): -2.15 | AW549542 transcript Fold Change (HFD-F + compound 2 vs HFD-F): 2.59 | Abcb1a transcript Fold Change (HFD-F + compound 2 vs HFD-F): 2.07 | Acod1 transcript Fold Change (HFD-F + compound 2 vs HFD-F): -7.35 | Acot3 transcript Fold Change (HFD-F + compound 2 vs HFD-F): 2.07 | Adam8 transcript Fold Change (HFD-F + compound 2 vs HFD-F): -2.4 | Adam11 transcript Fold Change (HFD-F + compound 2 vs HFD-F): 2.06 | Anxa2 transcript Fold Change (HFD-F + compound 2 vs HFD-F): -2.16 | Apcs transcript Fold Change (HFD-F + compound 2 vs HFD-F): -2.14 | Arntl transcript Fold Change (HFD-F + compound 2 vs HFD-F): -2.68 | Arsg transcript Fold Change (HFD-F + compound 2 vs HFD-F): -2.22 | Atp1a3 transcript Fold Change (HFD-F + compound 2 vs HFD-F): -2.15 | Aurka transcript Fold Change (HFD-F + compound 2 vs HFD-F): -2.11 | Avpr1a transcript Fold Change (HFD-F + compound 2 vs HFD-F): -2.31 | Bcat1 transcript Fold Change (HFD-F + compound 2 vs HFD-F): -2.27 | C920009B18Rik transcript Fold Change (HFD-F + compound 2 vs HFD-F): -2.05 | Cabyr transcript Fold Change (HFD-F + compound 2 vs HFD-F): 2.35 | Capn11 transcript Fold Change (HFD-F + compound 2 vs HFD-F): 3.56 | Ccl2 transcript Fold Change (HFD-F + compound 2 vs HFD-F): –9.45 | Ccl3 transcript Fold Change (HFD-F + compound 2 vs HFD-F): –45.68 | Ccl4 transcript Fold Change (HFD-F + compound 2 vs HFD-F): -3.76 | Ccl7 transcript Fold Change (HFD-F + compound 2 vs HFD-F): -5.24 | Ccl9 transcript Fold Change (HFD-F + compound 2 vs HFD-F): -2.83 | Cd9 transcript Fold Change (HFD-F + compound 2 vs HFD-F): -2.05 | Cd14 transcript Fold Change (HFD-F + compound 2 vs HFD-F): -2.38 | Cd36 transcript Fold Change (HFD-F + compound 2 vs HFD-F): -2.5 | Cd63 transcript Fold Change (HFD-F + compound 2 vs HFD-F): -2.18 | Cdk1 transcript Fold Change (HFD-F + compound 2 vs HFD-F): -2.15 | Cdkl2 transcript Fold Change (HFD-F + compound 2 vs HFD-F): -2.13 | Cdkn1a transcript Fold Change (HFD-F + compound 2 vs HFD-F): -7.58 | Cdkn3 transcript Fold Change (HFD-F + compound 2 vs HFD-F): -2.22 | Ces2b transcript Fold Change (HFD-F + compound 2 vs HFD-F): 3.35 | Cetn4 transcript Fold Change (HFD-F + compound 2 vs HFD-F): 2.21 | Chka transcript Fold Change (HFD-F + compound 2 vs HFD-F): -3.91 | Chrna4 transcript Fold Change (HFD-F + compound 2 vs HFD-F): -3.1 | Cidea transcript Fold Change (HFD-F + compound 2 vs HFD-F): -4.55 | Cidec transcript Fold Change (HFD-F + compound 2 vs HFD-F): -3.63 | Cirbp transcript Fold Change (HFD-F + compound 2 vs HFD-F): 2.31 | Ckap2 transcript Fold Change (HFD-F + compound 2 vs HFD-F): -2.19 | Clec4e transcript Fold Change (HFD-F + compound 2 vs HFD-F): -2.29 | Clec4d transcript Fold Change (HFD-F + compound 2 vs HFD-F): -2.99 | Col27a1 transcript Fold Change (HFD-F + compound 2 vs HFD-F): 3.11 | Csf3 transcript Fold Change (HFD-F + compound 2 vs HFD-F): -6.94 | Cxcl2 transcript Fold Change (HFD-F + compound 2 vs HFD-F): –12.23 | Cyp1a2 transcript Fold Change (HFD-F + compound 2 vs HFD-F): 4.77 | Cyp2a5 transcript Fold Change (HFD-F + compound 2 vs HFD-F): 2.79 | Cyp7a1 transcript Fold Change (HFD-F + compound 2 vs HFD-F): 3.98 | Cyp17a1 transcript Fold Change (HFD-F + compound 2 vs HFD-F): -2.12 | D17H6S56E-5 transcript Fold Change (HFD-F + compound 2 vs HFD-F): -2.1 | Dbp transcript Fold Change (HFD-F + compound 2 vs HFD-F): 3.21 | Defb1 transcript Fold Change (HFD-F + compound 2 vs HFD-F): -2.44 | Derl2 transcript Fold Change (HFD-F + compound 2 vs HFD-F): -2.01 | Dhrs9 transcript Fold Change (HFD-F + compound 2 vs HFD-F): -2.42 | Dtx4 transcript Fold Change (HFD-F + compound 2 vs HFD-F): -2.1 | Dusp8 transcript Fold Change (HFD-F + compound 2 vs HFD-F): -2.11 | Egr1 transcript Fold Change (HFD-F + compound 2 vs HFD-F): -4.09 | Ell transcript Fold Change (HFD-F + compound 2 vs HFD-F): 2.35 | Elovl3 transcript Fold Change (HFD-F + compound 2 vs HFD-F): -2.38 | Elovl5 transcript Fold Change (HFD-F + compound 2 vs HFD-F): -2.41 | Ephb2 transcript Fold Change (HFD-F + compound 2 vs HFD-F): -2.63 | Epm2aip1 transcript Fold Change (HFD-F + compound 2 vs HFD-F): -2.65 | Fam57a transcript Fold Change (HFD-F + compound 2 vs HFD-F): 2.55 | Fgf21 transcript Fold Change (HFD-F + compound 2 vs HFD-F): -6.9 | Fxyd2 transcript Fold Change (HFD-F + compound 2 vs HFD-F): -2.25 | Gdf15 transcript Fold Change (HFD-F + compound 2 vs HFD-F): -3.99 | Glipr1 transcript Fold Change (HFD-F + compound 2 vs HFD-F): -2.13 | Glipr2 transcript Fold Change (HFD-F + compound 2 vs HFD-F): -2.29 | Gm16063 transcript Fold Change (HFD-F + compound 2 vs HFD-F): 2.05 | Gm30692 transcript Fold Change (HFD-F + compound 2 vs HFD-F): -2.13 | Gm31555 transcript Fold Change (HFD-F + compound 2 vs HFD-F): 2.49
